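Each compound was tested at five concentrations against cells in 96-well plates for 48 hours. GI50 marks 50% less growth. TGI is the concentration that stops growth completely.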
What was measured:
Assay in all cases: NCI anticancer screen, dose series, 48 h
MDA-MB-435 = test system: MDA-MB-435
NCI-H226 lung = test system: NCI-H226 lung
A498 renal = test system: A498 renal
HOP-62 NSCLC = test system: HOP-62 NSCLC
KM12 colon = test system: KM12 colon
T-47D breast = test system: T-47D breast
UACC-257 melanoma = test system: UACC-257 melanoma
M14 melanoma = test system: M14 melanoma
RXF 393 renal = test system: RXF 393 renal
MDA-MB-231 breast = test system: MDA-MB-231 breast
SNB-75 CNS = test system: SNB-75 CNS
SK-MEL-28 melanoma = test system: SK-MEL-28 melanoma
HS 578T breast = test system: HS 578T breast
NCI-H23 lung = test system: NCI-H23 lung
HCC-2998 colon = test system: HCC-2998 colon
SK-MEL-2 melanoma = test system: SK-MEL-2 melanoma
UACC-62 melanoma = test system: UACC-62 melanoma
SR leukemia = test system: SR leukemia
SK-MEL-5 melanoma = test system: SK-MEL-5 melanoma
SK-OV-3 ovarian = test system: SK-OV-3 ovarian
K-562 leukemia = test system: K-562 leukemia
OVCAR-3 ovarian = test system: OVCAR-3 ovarian
CCRF-CEM leukemia = test system: CCRF-CEM leukemia
SF-539 CNS = test system: SF-539 CNS
U251 CNS = test system: U251 CNS
SW-620 colon = test system: SW-620 colon
HOP-92 NSCLC = test system: HOP-92 NSCLC
OVCAR-8 ovarian = test system: OVCAR-8 ovarian
NCI-H522 lung = test system: NCI-H522 lung
HT29 colon = test system: HT29 colon
SF-268 CNS = test system: SF-268 CNS
NCI-H460 lung = test system: NCI-H460 lung
HCT-116 colon = test system: HCT-116 colon
PC-3 prostate = test system: PC-3 prostate
MALME-3M melanoma = test system: MALME-3M melanoma
HL-60(TB) leukemia = test system: HL-60(TB) leukemia
EKVX NSCLC = test system: EKVX NSCLC
DU-145 prostate = test system: DU-145 prostate
COLO 205 colon = test system: COLO 205 colon
786-0 renal = test system: 786-0 renal
ACHN renal = test system: ACHN renal
UO-31 renal = test system: UO-31 renal
MCF7 breast = test system: MCF7 breast
RPMI-8226 leukemia = test system: RPMI-8226 leukemia
HCT-15 colon = test system: HCT-15 colon
MOLT-4 leukemia = test system: MOLT-4 leukemia
OVCAR-4 ovarian = test system: OVCAR-4 ovarian
LOX IMVI melanoma = test system: LOX IMVI melanoma
SNB-19 CNS = test system: SNB-19 CNS
SF-295 CNS = test system: SF-295 CNS
TK-10 renal = test system: TK-10 renal
MDA-MB-468 breast = test system: MDA-MB-468 breast
IGROV1 ovarian = test system: IGROV1 ovarian
SN12C renal = test system: SN12C renal
BT-549 breast = test system: BT-549 breast
CAKI-1 renal = test system: CAKI-1 renal
A549 NSCLC = test system: A549 NSCLC
OVCAR-5 ovarian = test system: OVCAR-5 ovarian

Work on C=C1CCC2C3(C)COC(c4c(F)cccc4F)OC3CCC2(C)C1C/C=C1/C(=O)OCC1O (stereo unspecified) yielded a GI50 (MDA-MB-435) of 1.97 µM, a TGI (MDA-MB-435) of 4.37 µM and a GI50 (NCI-H226 lung) of 1.78 µM. For the same molecule, the TGI (NCI-H226 lung) was 3.42 µM, the GI50 (A498 renal) was 19.8 µM and the TGI (A498 renal) was 34.5 µM. It also gave a GI50 (HOP-62 NSCLC) of 11.3 µM, a TGI (HOP-62 NSCLC) of 24 µM and a GI50 (KM12 colon) of 2.54 µM. The TGI (KM12 colon) was 6.88 µM, the GI50 (T-47D breast) was 3.25 µM and the TGI (T-47D breast) was 17.6 µM. The GI50 (UACC-257 melanoma) was 2.28 µM, the TGI (UACC-257 melanoma) was 8.77 µM and the GI50 (M14 melanoma) was 3.34 µM. The TGI (M14 melanoma) was 12 µM, the GI50 (RXF 393 renal) was 3.46 µM and the TGI (RXF 393 renal) was 11.4 µM. The GI50 (MDA-MB-231 breast) was 2.29 µM, the TGI (MDA-MB-231 breast) was 5.45 µM and the GI50 (SNB-75 CNS) was 3.75 µM. The TGI (SNB-75 CNS) was 16.4 µM, the GI50 (SK-MEL-28 melanoma) was 2.19 µM and the TGI (SK-MEL-28 melanoma) was 4.9 µM. For the same molecule, the GI50 (HS 578T breast) was 3.92 µM, the TGI (HS 578T breast) was 30.5 µM and the GI50 (NCI-H23 lung) was 5.66 µM. The TGI (NCI-H23 lung) was 18.5 µM, the GI50 (HCC-2998 colon) was 4.26 µM and the TGI (HCC-2998 colon) was 15.8 µM. The GI50 (SK-MEL-2 melanoma) was 2.88 µM, the TGI (SK-MEL-2 melanoma) was 8.52 µM and the GI50 (UACC-62 melanoma) was 3.13 µM. It also gave a TGI (UACC-62 melanoma) of 12 µM, a GI50 (SR leukemia) of 3.7 µM and a TGI (SR leukemia) of 12.5 µM. For the same molecule, the GI50 (SK-MEL-5 melanoma) was 4.53 µM, the TGI (SK-MEL-5 melanoma) was 16.4 µM and the GI50 (SK-OV-3 ovarian) was 17.8 µM. For the same molecule, the TGI (SK-OV-3 ovarian) was 32.4 µM, the GI50 (K-562 leukemia) was 3.12 µM and the TGI (K-562 leukemia) was 11.3 µM. It also gave a GI50 (OVCAR-3 ovarian) of 2.02 µM, a TGI (OVCAR-3 ovarian) of 4.12 µM and a GI50 (CCRF-CEM leukemia) of 2.24 µM. The TGI (CCRF-CEM leukemia) was 6.68 µM, the GI50 (SF-539 CNS) was 1.81 µM and the TGI (SF-539 CNS) was 3.3 µM. For the same molecule, the GI50 (U251 CNS) was 1.81 µM, the TGI (U251 CNS) was 3.45 µM and the GI50 (SW-620 colon) was 1.8 µM. The TGI (SW-620 colon) was 3.63 µM, the GI50 (HOP-92 NSCLC) was 2.94 µM and the TGI (HOP-92 NSCLC) was 9.34 µM. For the same molecule, the GI50 (OVCAR-8 ovarian) was 2.26 µM, the TGI (OVCAR-8 ovarian) was 7.04 µM and the GI50 (NCI-H522 lung) was 1.65 µM. It also gave a TGI (NCI-H522 lung) of 3.23 µM, a GI50 (HT29 colon) of 2.06 µM and a TGI (HT29 colon) of 4.26 µM. The GI50 (SF-268 CNS) was 4.4 µM, the TGI (SF-268 CNS) was 17.2 µM and the GI50 (NCI-H460 lung) was 3.06 µM. It also gave a TGI (NCI-H460 lung) of 11.8 µM, a GI50 (HCT-116 colon) of 1.61 µM and a TGI (HCT-116 colon) of 3.04 µM. The GI50 (PC-3 prostate) was 3.61 µM, the TGI (PC-3 prostate) was 13.4 µM and the GI50 (MALME-3M melanoma) was 3.55 µM. It also gave a TGI (MALME-3M melanoma) of 12.8 µM, a GI50 (HL-60(TB) leukemia) of 2 µM and a TGI (HL-60(TB) leukemia) of 5.03 µM. For the same molecule, the GI50 (EKVX NSCLC) was 13 µM, the TGI (EKVX NSCLC) was 26.1 µM and the GI50 (DU-145 prostate) was 4.16 µM. It also gave a TGI (DU-145 prostate) of 14.9 µM, a GI50 (COLO 205 colon) of 2.43 µM and a TGI (COLO 205 colon) of 5.27 µM. The GI50 (786-0 renal) was 1.8 µM, the TGI (786-0 renal) was 3.28 µM and the GI50 (ACHN renal) was 1.75 µM. It also gave a TGI (ACHN renal) of 3.16 µM, a GI50 (UO-31 renal) of 1.73 µM and a TGI (UO-31 renal) of 3.99 µM. The GI50 (MCF7 breast) was 1.95 µM, the TGI (MCF7 breast) was 5.48 µM and the GI50 (RPMI-8226 leukemia) was 2.37 µM. It also gave a TGI (RPMI-8226 leukemia) of 5.77 µM, a GI50 (HCT-15 colon) of 1.75 µM and a TGI (HCT-15 colon) of 4.12 µM. It also gave a GI50 (MOLT-4 leukemia) of 3.37 µM, a TGI (MOLT-4 leukemia) of 11.1 µM and a GI50 (OVCAR-4 ovarian) of 2.58 µM. For the same molecule, the TGI (OVCAR-4 ovarian) was 7.77 µM, the GI50 (LOX IMVI melanoma) was 1.59 µM and the TGI (LOX IMVI melanoma) was 2.93 µM. The GI50 (SNB-19 CNS) was 8.4 µM, the TGI (SNB-19 CNS) was 20.8 µM and the GI50 (SF-295 CNS) was 1.94 µM. For the same molecule, the TGI (SF-295 CNS) was 4.67 µM, the GI50 (TK-10 renal) was 6.18 µM and the TGI (TK-10 renal) was 19.4 µM. The GI50 (MDA-MB-468 breast) was 1.78 µM, the TGI (MDA-MB-468 breast) was 3.58 µM and the GI50 (IGROV1 ovarian) was 4.56 µM. For the same molecule, the TGI (IGROV1 ovarian) was 16.5 µM, the GI50 (SN12C renal) was 1.81 µM and the TGI (SN12C renal) was 4.2 µM. It also gave a GI50 (BT-549 breast) of 1.89 µM, a TGI (BT-549 breast) of 4.17 µM and a GI50 (CAKI-1 renal) of 3.38 µM. It also gave a TGI (CAKI-1 renal) of 11.3 µM, a GI50 (A549 NSCLC) of 4.05 µM and a TGI (A549 NSCLC) of 17.2 µM. It also gave a GI50 (OVCAR-5 ovarian) of 2.17 µM and a TGI (OVCAR-5 ovarian) of 5.06 µM.

— PubChem BioAssay (NCI)
